Test results from PMC10590056, “Design and synthesis of cabotegravir derivatives bearing 1,2,3-triazole and evaluation of anti-liver cancer activity” (Frontiers in Pharmacology, 2023).
Several values for one entry are separate records, joined by “and”; a condition that tells them apart may be missing. Identical values can stand only once. Like-named read-outs stand apart in the source and are kept apart here.

Columns and labels:
Assay type in all cases: cell-based
MCF-7 cells = test: MTT assay for cell proliferation, MCF-7; parameters: key to Inhibitory rate / Inhibition rate: inhibition rate = 1 - mean A490 sample/mean A490 control (fraction)
Procedure, shortened: (§1)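 Proliferation read-out is MTT reduction (4 h) after 48 h treatment with KJ-5 or KJ-12 across 0, 1, 2, 4, 8, 16 and 32 μM. Cultures in 10% FBS DMEM, 37 °C, plated at 10^5 cells/mL; A490 of DMSO-dissolved formazan compared with untreated control.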

HepG2 cells [1] = test: Transwell invasion assay (Matrigel); conditions: HepG2, 24 h treatment, vs control
Experimental: (§2) HepG2 cells were treated with either KJ-5 or KJ-12 for 24 h. Then, the cells were suspended and seeded into the upper chamber of a 24-well Transwell plate (Corning Inc., United States) in serum-free medium. The cells were cultured for 24 h at 37°C; a medium containing 20% FBS as a chemoattractant was added to the lower chamber. HepG2 cells that had invaded through the membrane were fixed with 4% paraformaldehyde for 20 min and stained with 0.1% crystal violet. Five random fields were then imaged and quantified using an inverted fluorescence microscope (Axio Observer3, Germany). To assess invasion, transwell assays were performed in a similar manner, with the exception of coating the upper chamber of the Transwell with 100 μL of diluted Matrigel solution per well.

HepG2 cells [2] = test: Annexin V-FITC/PI staining for cell apoptosis (flow cytometry); conditions: 24 h; for Proportion of apoptotic cells: Annexin-V/PI
Experimental: HepG2 cells were plated in a 6-well plate at a density of 5 × 10^6 cells/well and incubated for 24 h. Then, the original culture medium was replaced with 2 mL DMEM containing KJ-5 or KJ-12 (2, 4, and 8 μM) and incubated for 24 h. After incubation with KJ-5 or KJ-12, the cells were washed with cold PBS and then resuspended in 100 µL binding buffer at a concentration of 1 × 10^6 cells/mL. Then, 5 μl of FITC Annexin V and 5 µl of PI were added to the solution. The cells were gently vortexed and incubated for 15 min at room temperature (25°C) in the dark. Subsequently, 400 µL binding buffer was added to each tube, and the samples were analyzed by flow cytometry (BD Accuri™ C6 Plus) within 1 h.

HepG2 cells [3] = test: Transwell migration assay (without Matrigel); conditions: HepG2, 24 h treatment, vs control
Experimental: as §2

HepG2 cells [4] = test: DAPI staining for cell apoptosis (morphology); conditions: HepG2, 2, 4, 8 μM, 24 h
Experimental: Apoptotic morphological changes were determined by DAPI staining. HepG2 cells were seeded in a 48-well plate and treated with different concentrations of KJ-5 and KJ-12 (2, 4, and 8 μM) for 24 h. After 24 h, they were then washed with PBS and fixed with 4% paraformaldehyde for 20 min. Subsequently, they were then washed with PBS and treated with DAPI (10 μg/mL) at 37°C for 5 min. After washing with PBS, the cells were resuspended in PBS for the rest of the experiment. A fluorescence microscope was used to observe the apoptotic morphological changes.

HeLa cells = test: MTT assay for cell proliferation, HeLa; parameters: key to Inhibitory rate: inhibition rate = 1 - mean A490 sample/mean A490 control (fraction)
Procedure, shortened: as §1

HepG2 cells [5] = test: Cell cycle analysis (PI, flow cytometry); conditions: 24 h
Experimental: HepG2 cells were seeded in a 6-well plate at a density of 5 × 10^6 cells/well and treated with either KJ-5 or KJ-12 at concentrations of 2, 4, or 8 μM for 24 h. Cells were then collected and responded in […] of cold PBS. Subsequently, 700 μL of cold 70% ethanol was added to the cells and gently mixed by inversion on ice for 1 h. Cells were then centrifuged at 2,000 rpm for 10 min, washed once with 2 mL of cold PBS, and the supernatant was discarded. The cell pellet was resuspended in 250 μL of cold PBS, followed by the addition of 10 μL of RNase at a final concentration of 0.4 mg/mL and incubated at 37°C for 30 min. An additional 250 μL of PBS was added, followed by the addition of 5 μL of PI solution at a final concentration of 10 μg/mL. The samples were incubated […] in the dark overnight at 4°C. Finally, the samples were analyzed by flow cytometry.

[6] = MCF-7, fraction, per experiment

Structure (SMILES): COc1c2n(cc(C(=O)Nc3cccc(-c4cn(-c5c(C)cc(C)cc5C)nn4)c3)c1=O)C[C@H]1OC[C@H](C)N1C2=O [KJ-12]
- IC50 (MCF-7 cells; Homo sapiens, MCF7, 48 h, MCF-7, 48 h, MTT, read-out: IC50 MCF-7): 8.55 ± 0.6 µM
- IC50 (MCF-7 cells; Homo sapiens, MCF7, MCF-7, one of three experiments, unit inferred, read-out: IC50, single experiment, MCF-7): 9.23 µM
- inhibition at 16 µM (MCF-7 cells; Homo sapiens, MCF7, preliminary screening, MCF-7, 16 μM, 48 h, mean±SD, unit inferred, read-out: Inhibition rate (16μM), 48 h, MCF-7): 54.7 ± 1.79%
- Inhibitory rate (MCF-7 cells; MCF-7, group 1 (concentration), fraction, single experiments): 0.2053 and 0.2025 and 0.1943
- ODtreated/ODcontrol (MCF-7 cells; MCF-7, group 1 (concentration), single experiments): 0.7947 and 0.7975 and 0.8057
- Inhibitory rate (MCF-7 cells; MCF-7, group 2 (concentration), fraction, single experiments): 0.2385 and 0.2481 and 0.2879
- ODtreated/ODcontrol (MCF-7 cells; MCF-7, group 2 (concentration), single experiments): 0.7615 and 0.7519 and 0.7121
- Inhibitory rate (MCF-7 cells; MCF-7, group 4 (concentration), fraction, single experiments): 0.3137 and 0.3313 and 0.3802
- ODtreated/ODcontrol (MCF-7 cells; MCF-7, group 4 (concentration), single experiments): 0.6863 and 0.6687 and 0.6198
- Inhibitory rate (MCF-7 cells; MCF-7, group 8 (concentration), fraction, single experiments): 0.4877 and 0.4713 and 0.472
- ODtreated/ODcontrol (MCF-7 cells; MCF-7, group 8 (concentration), single experiments): 0.5123 and 0.5287 and 0.528
- Inhibitory rate (MCF-7 cells; MCF-7, group 16 (concentration), fraction, single experiments): 0.5949 and 0.6244 and 0.5636
- ODtreated/ODcontrol (MCF-7 cells; MCF-7, group 16 (concentration), single experiments): 0.4051 and 0.3756 and 0.4364
- Inhibitory rate (MCF-7 cells; MCF-7, group 32 (concentration), fraction, single experiments): 0.7215 and 0.7706 and 0.7971
- ODtreated/ODcontrol (MCF-7 cells; MCF-7, group 32 (concentration), single experiments): 0.2785 and 0.2294 and 0.2029
- IC50 (MCF-7 cells; MCF-7, one of three experiments, unit inferred, read-out: IC50, single experiment, MCF-7): 8.35 µM and 8.08 µM
- Inhibitory rate (MCF-7 cells; [6]): 0.5407
- ODtreated/ODcontrol (MCF-7 cells; [6]): 0.4593
- Inhibitory rate (MCF-7 cells; given as fraction, second of three experiments): 0.5326
- Inhibition rate (MCF-7 cells; given as fraction, third of three experiments): 0.5669
- ODtreated/ODcontrol (MCF-7 cells; second of three experiments): 0.4674
- ODtreated/ODcontrol (MCF-7 cells; third of three experiments): 0.4331
- Invasion of HepG2 cells (transwell with Matrigel) (HepG2 cells [1]): significantly impaired
- Proportion of apoptotic cells (HepG2 cells [2]; HepG2, 2 μM): 21.2 ± 1.4%
- Proportion of apoptotic cells (HepG2 cells [2]; HepG2, 4 μM): 30.5 ± 1.1%
- Proportion of apoptotic cells (HepG2 cells [2]; HepG2, 8 μM): 44.4 ± 1.9%
- Cell apoptosis (in words) (HepG2 cells [2]; HepG2, 2, 4, 8 μM): significantly caused cell apoptosis in a concentration-dependent manner
- Migration of HepG2 cells (transwell without Matrigel) (HepG2 cells [3]): significantly impaired
- Apoptotic morphological changes, DAPI staining (HepG2 cells [4]): cell shrinkage, nuclear condensation, and chromatin fragmentation
- Inhibitory rate (HeLa cells; Hela, group 1 (concentration), fraction, single experiments): 0.2971 and 0.2883 and 0.2551
- ODtreated/ODcontrol (HeLa cells; Hela, group 1 (concentration), single experiments): 0.7029 and 0.7117 and 0.7449
- Inhibitory rate (HeLa cells; Hela, group 2 (concentration), fraction, single experiments): 0.3155 and 0.3221 and 0.3198
- ODtreated/ODcontrol (HeLa cells; Hela, group 2 (concentration), single experiments): 0.6845 and 0.6779 and 0.6802
- Inhibitory rate (HeLa cells; Hela, group 4 (concentration), fraction, single experiments): 0.3594 and 0.3533 and 0.3688
- ODtreated/ODcontrol (HeLa cells; Hela, group 4 (concentration), single experiments): 0.6406 and 0.6467 and 0.6312
- Inhibitory rate (HeLa cells; Hela, group 8 (concentration), fraction, single experiments): 0.7153 and 0.627 and 0.5661
- ODtreated/ODcontrol (HeLa cells; Hela, group 8 (concentration), single experiments): 0.2847 and 0.373 and 0.4339
- Inhibitory rate (HeLa cells; Hela, group 16 (concentration), fraction, single experiments): 0.7226 and 0.7292 and 0.7302
- ODtreated/ODcontrol (HeLa cells; Hela, group 16 (concentration), single experiments): 0.2774 and 0.2708 and 0.2698
- Inhibitory rate (HeLa cells; Hela, group 32 (concentration), fraction, single experiments): 0.7312 and 0.7755 and 0.8162
- ODtreated/ODcontrol (HeLa cells; Hela, group 32 (concentration), single experiments): 0.2688 and 0.2245 and 0.1838
- IC50 (HeLa cells; Hela, one of three experiments, unit inferred, read-out: IC50, single experiment, Hela): 5.49 µM and 4.82 µM
- Inhibitory rate (HeLa cells; Hela, fraction, per experiment): 0.7218 and 0.7353 and 0.6986
- ODtreated/ODcontrol (HeLa cells; Hela, fraction, per experiment): 0.2782 and 0.2647 and 0.3014
- IC50 (HeLa cells; Homo sapiens, HeLa, 48 h, HeLa, 48 h, MTT, read-out: IC50 HeLa): 5.17 ± 0.34 µM
- IC50 (HeLa cells; Homo sapiens, HeLa, one of three experiments, unit inferred, read-out: IC50, single experiment, Hela): 5.19 µM
- inhibition at 16 µM (HeLa cells; Homo sapiens, preliminary screening, Hela, 16 μM, 48 h, mean±SD, unit inferred, read-out: Inhibition rate (16μM), 48 h, Hela): 71.9 ± 1.86%
- Percentage of cells in the G1 phase (HepG2 cells [5]; HepG2, 2 μM): 47.4%
- Percentage of cells in the G2/M phase (HepG2 cells [5]; HepG2, 2 μM): 22.2%
- Percentage of cells in the G1 phase (HepG2 cells [5]; HepG2, 4 μM): 25%
- Percentage of cells in the G2/M phase (HepG2 cells [5]; HepG2, 4 μM): 47.5%
- Percentage of cells in the G1 phase (HepG2 cells [5]; HepG2, 8 μM): 16.4%
- Percentage of cells in the G2/M phase (HepG2 cells [5]; HepG2, 8 μM): 59.7%
- Percentage of cells in the S phase (change vs control) (HepG2 cells [5]; HepG2, 2-8 μM): remained unchanged substantially
